Literature values as cited in patent US9980903B2, “Gastric retentive oral dosage form with restricted drug release in the lower gastrointestinal tract” (Depomed, Inc., priority 2001, dated 2018).

Details: presently available immediate release dosage form

O=C(O)c1cn(C2CC2)c2cc(N3CCNCC3)c(F)cc2c1=O [Ciprofloxacin, 1-cyclopropyl-6-fluoro-1,4-dihydro-4-oxo-7-(1-piperazinyl)-3-quinolinecarboxylic acid]
time at which maximum serum concentration is attained after dosing: 1 to 2 h
